Data taken from ChEMBL document CHEMBL1201862, “PubChem BioAssay data set” (2004).
Active and inactive are the calls of the source.

Experiments:
[1] = target: T1, Peroxisome proliferator-activated receptor gamma/Nuclear receptor coactivator 3 (Homo sapiens, UniProt P37231); type: functional
[2] = target: T2, Peroxisome proliferator-activated receptor gamma/Nuclear receptor coactivator 1 (Homo sapiens, UniProt P37231); type: functional
[3] = target: T3, Peroxisome proliferator-activated receptor gamma/Nuclear receptor coactivator 2 (Homo sapiens, UniProt P37231); type: functional
[4] = cytotoxicity toward NIH3T3 fibroblasts, dose response, counter-screen, cell-based, ATP luminescence, mouse fibroblasts (AID 2010); type: functional;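 further: cells exposed to compound for about 90 hours before reading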
[5] = target: T4, Short transient receptor potential channel 4 (Mus musculus, UniProt Q9QUQ5); experiment: mouse TRPC4 channel inhibitors, dose response, cell-based, HEK293 TRPC4/mu-opioid, Fluo-4 calcium (AID 434942); type: functional;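 further: potency of inhibitors blocking the TRPC4 calcium response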
T4 sequence (Q9QUQ5 whole entry): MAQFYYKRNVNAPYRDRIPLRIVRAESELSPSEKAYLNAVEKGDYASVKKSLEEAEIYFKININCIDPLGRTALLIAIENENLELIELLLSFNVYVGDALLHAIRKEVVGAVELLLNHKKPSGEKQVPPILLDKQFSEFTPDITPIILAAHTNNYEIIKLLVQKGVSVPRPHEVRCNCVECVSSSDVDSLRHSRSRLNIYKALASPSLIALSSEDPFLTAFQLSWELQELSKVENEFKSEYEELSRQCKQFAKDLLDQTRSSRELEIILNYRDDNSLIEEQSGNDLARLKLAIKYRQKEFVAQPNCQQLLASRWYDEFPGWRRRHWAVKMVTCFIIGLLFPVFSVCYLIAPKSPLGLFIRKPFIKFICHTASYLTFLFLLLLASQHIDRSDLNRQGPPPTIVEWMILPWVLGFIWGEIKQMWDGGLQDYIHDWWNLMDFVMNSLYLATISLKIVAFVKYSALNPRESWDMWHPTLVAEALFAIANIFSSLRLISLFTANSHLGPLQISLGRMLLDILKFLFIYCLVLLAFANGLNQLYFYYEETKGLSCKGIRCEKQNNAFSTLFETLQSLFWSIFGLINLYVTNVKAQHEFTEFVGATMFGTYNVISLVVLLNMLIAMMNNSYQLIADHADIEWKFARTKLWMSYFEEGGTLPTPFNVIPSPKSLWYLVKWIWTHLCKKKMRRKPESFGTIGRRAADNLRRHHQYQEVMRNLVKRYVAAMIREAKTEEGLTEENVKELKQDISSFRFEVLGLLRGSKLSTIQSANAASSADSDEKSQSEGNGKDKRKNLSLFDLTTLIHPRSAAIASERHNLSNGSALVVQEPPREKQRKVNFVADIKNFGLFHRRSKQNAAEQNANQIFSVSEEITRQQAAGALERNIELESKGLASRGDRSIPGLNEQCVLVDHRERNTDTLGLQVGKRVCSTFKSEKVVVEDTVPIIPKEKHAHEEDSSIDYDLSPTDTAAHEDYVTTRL

[6] = inhibitors of intracellular T. cruzi replication, confirmation, NIH3T3 host cells, beta-gal luminescence (AID 2044); type: functional, cell-based;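 further: intracellular parasites grown in NIH/3T3 mouse fibroblasts as host cells; luminescent beta-galactosidase reporter signal from transgenic T. cruzi replicating inside host cells; inhibitors lower the luminescence signal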
[7] = target: T3, Peroxisome proliferator-activated receptor gamma/Nuclear receptor coactivator 2; experiment: (§1) TR-FRET dose response biochemical High Throughput Screening assay for agonists of the steroid receptor coactivator 2 (SRC-2) recruitment by the peroxisome proliferator-activated receptor gamma (PPAR gamma): non-selective agonists. [Related pubchem assays: 1297, 1032 ]; type: functional
[8] = target: T2, Peroxisome proliferator-activated receptor gamma/Nuclear receptor coactivator 1; experiment: as §1, with “1 (SRC-1)” for “2 (SRC-2)”, “assays (depositor defined):AID1300, AID1808, AID504735, AID631]” for “assays: 1297, 1032 ]”; type: protein assay
[9] = target: T1, Peroxisome proliferator-activated receptor gamma/Nuclear receptor coactivator 3; experiment: as §1, with “3 (SRC-3)” for “2 (SRC-2)”, “1301 (Confirmation screen.), 1048 (Primary screen.)]” for “1297, 1032 ]”; type: functional
[10] = target: T5, DNA repair protein RAD52 homolog (Homo sapiens, UniProt P43351); type: functional, biochemical
T5 sequence (P43351 whole entry): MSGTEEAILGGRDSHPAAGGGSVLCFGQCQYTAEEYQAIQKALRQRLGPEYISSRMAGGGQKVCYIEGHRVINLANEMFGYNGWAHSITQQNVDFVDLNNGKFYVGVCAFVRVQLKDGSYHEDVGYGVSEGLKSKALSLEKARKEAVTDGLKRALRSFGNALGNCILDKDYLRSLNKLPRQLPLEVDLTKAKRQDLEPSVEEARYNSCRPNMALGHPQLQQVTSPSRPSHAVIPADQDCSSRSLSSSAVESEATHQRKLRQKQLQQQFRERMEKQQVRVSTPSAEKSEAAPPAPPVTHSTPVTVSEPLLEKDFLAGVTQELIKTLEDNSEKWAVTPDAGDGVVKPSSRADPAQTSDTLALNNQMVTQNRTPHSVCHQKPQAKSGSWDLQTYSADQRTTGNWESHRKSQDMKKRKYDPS

[11] = target: T6, DNA repair and recombination protein RAD54-like (Homo sapiens, UniProt Q92698); experiment: inhibitors of human RAD54 branch migration, confirmation, biochemical, fluorescence, cherry-picked samples, dose series (AID 651657); type: functional
T6 sequence (Q92698 whole entry): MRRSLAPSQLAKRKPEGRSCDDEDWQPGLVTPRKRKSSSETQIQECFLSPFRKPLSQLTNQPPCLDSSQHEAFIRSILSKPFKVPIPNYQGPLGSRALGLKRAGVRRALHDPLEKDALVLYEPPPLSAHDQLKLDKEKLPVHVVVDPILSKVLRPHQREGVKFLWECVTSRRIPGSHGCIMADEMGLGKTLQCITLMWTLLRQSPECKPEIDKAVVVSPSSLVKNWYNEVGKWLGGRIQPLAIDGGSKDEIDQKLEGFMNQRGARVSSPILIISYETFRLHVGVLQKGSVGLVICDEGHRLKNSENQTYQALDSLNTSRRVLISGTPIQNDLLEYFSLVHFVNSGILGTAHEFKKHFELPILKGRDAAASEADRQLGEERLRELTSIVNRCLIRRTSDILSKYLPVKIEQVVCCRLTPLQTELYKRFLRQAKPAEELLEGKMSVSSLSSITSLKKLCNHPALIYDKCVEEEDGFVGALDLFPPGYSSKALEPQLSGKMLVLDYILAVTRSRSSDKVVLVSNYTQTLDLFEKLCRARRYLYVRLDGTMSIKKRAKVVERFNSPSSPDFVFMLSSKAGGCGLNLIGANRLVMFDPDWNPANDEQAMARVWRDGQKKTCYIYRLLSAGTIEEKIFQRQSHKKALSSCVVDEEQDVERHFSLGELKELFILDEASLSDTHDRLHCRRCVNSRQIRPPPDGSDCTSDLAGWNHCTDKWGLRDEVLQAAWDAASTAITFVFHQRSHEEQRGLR

[12] = target: T7, Voltage-gated N-type calcium channel alpha-1B subunit/Amyloid beta A4 precursor protein-binding family A member 1 (Homo sapiens, UniProt Q00975+Q02410); type: protein assay
[13] = target: T7, Voltage-gated N-type calcium channel alpha-1B subunit/Amyloid beta A4 precursor protein-binding family A member 1; type: protein assay; remark: listed apart in the source
Cytochrome P450 2C9 = Cytochrome P450 2C9 (Homo sapiens, UniProt P11712)
Cytochrome P450 1A2 = target: T8, Cytochrome P450 1A2 (Homo sapiens, UniProt P05177);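 further: PubChem cytochrome P450 panel assay, CYP1A2 panel member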
T8 sequence (P05177 whole entry): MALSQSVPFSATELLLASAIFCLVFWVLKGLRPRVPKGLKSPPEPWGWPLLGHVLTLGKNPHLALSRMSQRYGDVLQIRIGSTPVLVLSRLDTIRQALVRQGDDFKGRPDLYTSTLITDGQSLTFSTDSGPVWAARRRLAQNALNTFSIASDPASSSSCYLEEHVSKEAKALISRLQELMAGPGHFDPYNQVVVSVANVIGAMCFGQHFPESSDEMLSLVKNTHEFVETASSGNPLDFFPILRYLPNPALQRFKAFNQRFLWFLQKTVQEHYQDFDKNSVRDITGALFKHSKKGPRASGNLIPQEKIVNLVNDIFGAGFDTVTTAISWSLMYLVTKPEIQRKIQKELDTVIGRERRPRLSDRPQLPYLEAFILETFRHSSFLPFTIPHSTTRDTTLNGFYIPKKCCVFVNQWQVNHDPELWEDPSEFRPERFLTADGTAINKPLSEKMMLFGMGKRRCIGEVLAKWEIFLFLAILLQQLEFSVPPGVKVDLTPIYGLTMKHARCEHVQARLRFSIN

[14] = target: T4, Short transient receptor potential channel 4; experiment: mouse TRPC4 channel activators, dose response, cell-based, HEK293 TRPC4/mu-opioid, Fluo-4 calcium (AID 434937); type: functional
HT-1080 = experiment: cytotoxicity in HT1080 fibrosarcoma cells, cell-based, fluorescence readout (AID 620); type: functional; conditions: Homo sapiens
[15] = target: Luciferin 4-monooxygenase (Photinus pyralis, UniProt P08659); experiment: Counter Screen for Luciferase-based Assay Positives. [Related pubchem assays: 620, 618, 411 ]
[16] = inhibitors of HIV Env-driven cell fusion, dose response, cherry-pick (AID 652057); type: functional, cell-based
[17] = target: T9, Small ubiquitin-related modifier 1 (Homo sapiens, UniProt P63165); experiment: inhibitors of SUMO1 partner interactions, dose response, biochemical, FRET (AID 624383); type: functional; conditions: read-out: IC50_Mean
[18] = target: T9, Small ubiquitin-related modifier 1; experiment: inhibitors of SUMO1 peptide binding, dose response, biochemical, fluorescence polarization, uHTS hits (AID 624382); type: functional; conditions: read-out: IC50_Mean
[19] = inhibitors of clade B AD8 Env fusion, dose response, cell-based, cherry-pick (AID 652062); type: functional;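 further: luciferase signal from cell-cell fusion driven by HIV-1 clade B AD8 Env; potency is for inhibitors of fusion seen as a drop in luminescence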

T3 sequence (P37231 whole entry): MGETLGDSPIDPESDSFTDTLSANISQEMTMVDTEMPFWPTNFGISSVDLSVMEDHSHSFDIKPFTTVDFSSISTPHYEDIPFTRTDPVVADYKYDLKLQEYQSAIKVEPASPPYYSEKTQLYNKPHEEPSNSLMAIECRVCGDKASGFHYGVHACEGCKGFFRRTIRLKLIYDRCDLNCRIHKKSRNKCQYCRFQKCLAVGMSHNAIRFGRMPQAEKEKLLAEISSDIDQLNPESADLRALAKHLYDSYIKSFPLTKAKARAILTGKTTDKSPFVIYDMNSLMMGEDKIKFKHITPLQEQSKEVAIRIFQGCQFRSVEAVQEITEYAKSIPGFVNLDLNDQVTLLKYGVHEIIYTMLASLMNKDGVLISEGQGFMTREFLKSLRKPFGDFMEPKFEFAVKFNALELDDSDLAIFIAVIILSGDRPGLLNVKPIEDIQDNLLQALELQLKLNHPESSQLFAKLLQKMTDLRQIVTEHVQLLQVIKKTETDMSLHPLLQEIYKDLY
T3 sequence (Q15596 whole entry, further chain): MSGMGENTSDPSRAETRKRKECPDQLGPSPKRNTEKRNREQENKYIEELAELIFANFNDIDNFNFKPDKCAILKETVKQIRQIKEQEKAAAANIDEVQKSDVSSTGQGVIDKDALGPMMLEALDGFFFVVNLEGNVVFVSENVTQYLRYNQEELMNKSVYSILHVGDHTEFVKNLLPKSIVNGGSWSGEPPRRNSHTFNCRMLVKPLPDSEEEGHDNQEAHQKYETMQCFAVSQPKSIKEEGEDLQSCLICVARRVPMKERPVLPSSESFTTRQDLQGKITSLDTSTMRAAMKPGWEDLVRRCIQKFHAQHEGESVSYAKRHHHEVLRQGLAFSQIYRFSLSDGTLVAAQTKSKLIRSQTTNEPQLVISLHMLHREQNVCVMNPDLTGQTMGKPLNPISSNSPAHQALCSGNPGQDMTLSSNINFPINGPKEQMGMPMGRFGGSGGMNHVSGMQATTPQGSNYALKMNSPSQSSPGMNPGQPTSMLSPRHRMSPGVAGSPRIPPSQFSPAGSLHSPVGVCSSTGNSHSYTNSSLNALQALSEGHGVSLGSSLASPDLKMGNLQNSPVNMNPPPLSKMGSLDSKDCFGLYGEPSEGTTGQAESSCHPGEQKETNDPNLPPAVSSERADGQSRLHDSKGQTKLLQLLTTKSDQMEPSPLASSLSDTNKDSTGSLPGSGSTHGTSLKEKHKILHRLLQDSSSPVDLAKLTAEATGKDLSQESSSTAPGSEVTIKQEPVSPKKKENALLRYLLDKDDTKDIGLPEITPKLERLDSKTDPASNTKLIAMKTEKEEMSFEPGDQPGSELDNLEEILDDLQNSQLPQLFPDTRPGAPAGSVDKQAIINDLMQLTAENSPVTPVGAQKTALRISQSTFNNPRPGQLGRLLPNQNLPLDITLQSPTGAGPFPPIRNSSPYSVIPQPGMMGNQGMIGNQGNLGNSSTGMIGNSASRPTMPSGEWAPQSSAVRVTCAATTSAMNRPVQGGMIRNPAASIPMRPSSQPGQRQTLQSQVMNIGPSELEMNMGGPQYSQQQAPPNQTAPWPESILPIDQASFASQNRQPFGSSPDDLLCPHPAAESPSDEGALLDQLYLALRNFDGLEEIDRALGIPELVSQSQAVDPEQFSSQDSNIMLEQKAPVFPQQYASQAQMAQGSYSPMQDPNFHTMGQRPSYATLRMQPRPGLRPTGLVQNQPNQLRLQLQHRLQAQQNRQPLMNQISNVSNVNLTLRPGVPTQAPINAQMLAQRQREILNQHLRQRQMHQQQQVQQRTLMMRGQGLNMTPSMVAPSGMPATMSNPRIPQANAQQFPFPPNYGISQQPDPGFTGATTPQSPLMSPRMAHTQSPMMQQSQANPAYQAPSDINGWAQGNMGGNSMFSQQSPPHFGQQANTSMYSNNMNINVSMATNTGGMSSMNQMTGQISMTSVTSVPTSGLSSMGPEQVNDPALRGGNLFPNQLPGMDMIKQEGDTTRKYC
T1 sequence (P37231 whole entry): as the sequence (P37231 whole entry) above
T1 sequence (Q9Y6Q9 whole entry, further chain): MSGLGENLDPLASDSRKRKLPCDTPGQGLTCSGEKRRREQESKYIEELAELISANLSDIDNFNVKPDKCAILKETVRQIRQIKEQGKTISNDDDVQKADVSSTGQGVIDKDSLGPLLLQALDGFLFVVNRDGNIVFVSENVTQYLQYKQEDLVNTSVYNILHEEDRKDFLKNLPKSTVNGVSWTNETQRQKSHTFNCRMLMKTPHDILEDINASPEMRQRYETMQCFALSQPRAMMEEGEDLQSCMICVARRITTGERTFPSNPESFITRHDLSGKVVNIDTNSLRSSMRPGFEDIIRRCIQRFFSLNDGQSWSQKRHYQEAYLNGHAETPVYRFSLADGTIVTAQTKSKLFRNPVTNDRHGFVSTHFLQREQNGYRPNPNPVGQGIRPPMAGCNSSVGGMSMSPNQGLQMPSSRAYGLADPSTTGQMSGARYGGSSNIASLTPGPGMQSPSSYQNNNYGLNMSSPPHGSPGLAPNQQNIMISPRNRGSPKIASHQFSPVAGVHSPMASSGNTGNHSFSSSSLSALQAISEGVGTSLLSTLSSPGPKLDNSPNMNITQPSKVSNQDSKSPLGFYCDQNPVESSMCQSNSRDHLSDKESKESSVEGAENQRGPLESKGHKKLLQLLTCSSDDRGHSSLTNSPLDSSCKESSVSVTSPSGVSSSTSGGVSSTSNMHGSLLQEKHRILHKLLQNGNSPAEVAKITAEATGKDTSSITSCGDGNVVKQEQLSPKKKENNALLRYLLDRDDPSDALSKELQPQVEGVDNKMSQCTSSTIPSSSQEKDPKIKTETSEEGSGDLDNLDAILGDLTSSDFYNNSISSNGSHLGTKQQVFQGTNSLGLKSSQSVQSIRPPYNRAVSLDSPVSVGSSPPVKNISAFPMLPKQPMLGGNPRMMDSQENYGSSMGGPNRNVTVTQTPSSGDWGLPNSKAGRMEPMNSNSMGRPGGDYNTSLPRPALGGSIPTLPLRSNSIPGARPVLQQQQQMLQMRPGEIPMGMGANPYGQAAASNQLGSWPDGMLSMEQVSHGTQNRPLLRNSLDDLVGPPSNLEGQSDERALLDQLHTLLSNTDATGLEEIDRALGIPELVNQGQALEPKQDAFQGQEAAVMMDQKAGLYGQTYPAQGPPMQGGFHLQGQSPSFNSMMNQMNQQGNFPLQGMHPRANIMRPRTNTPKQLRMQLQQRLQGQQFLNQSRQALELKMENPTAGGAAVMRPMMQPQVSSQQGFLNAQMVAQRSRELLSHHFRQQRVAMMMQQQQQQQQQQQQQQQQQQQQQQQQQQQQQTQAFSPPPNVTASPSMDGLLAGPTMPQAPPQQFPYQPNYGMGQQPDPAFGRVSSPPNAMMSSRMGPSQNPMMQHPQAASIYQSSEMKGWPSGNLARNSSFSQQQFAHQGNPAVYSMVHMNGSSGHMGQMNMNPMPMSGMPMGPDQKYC
Chain of Luciferin 4-monooxygenase (P08659 whole entry, the tested form may be a part): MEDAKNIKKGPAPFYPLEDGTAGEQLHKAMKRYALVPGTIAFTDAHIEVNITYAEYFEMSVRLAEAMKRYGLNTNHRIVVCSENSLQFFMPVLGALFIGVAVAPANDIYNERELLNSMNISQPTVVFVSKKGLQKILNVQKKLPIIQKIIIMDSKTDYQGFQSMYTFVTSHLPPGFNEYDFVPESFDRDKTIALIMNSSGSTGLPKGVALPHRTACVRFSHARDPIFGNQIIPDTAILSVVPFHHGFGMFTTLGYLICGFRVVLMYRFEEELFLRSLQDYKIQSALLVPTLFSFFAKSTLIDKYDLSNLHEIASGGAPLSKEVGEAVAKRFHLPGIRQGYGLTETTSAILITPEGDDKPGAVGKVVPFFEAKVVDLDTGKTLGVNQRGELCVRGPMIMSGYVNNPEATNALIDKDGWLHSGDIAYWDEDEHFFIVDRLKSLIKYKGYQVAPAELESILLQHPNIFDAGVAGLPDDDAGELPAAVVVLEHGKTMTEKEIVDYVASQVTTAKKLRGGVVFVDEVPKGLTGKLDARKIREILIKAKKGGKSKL
T9 sequence (P63165 whole entry): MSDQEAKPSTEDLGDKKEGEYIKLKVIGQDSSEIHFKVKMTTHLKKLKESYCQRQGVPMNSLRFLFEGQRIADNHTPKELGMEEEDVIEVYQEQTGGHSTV
Chain of Cytochrome P450 2C9 (P11712 whole entry): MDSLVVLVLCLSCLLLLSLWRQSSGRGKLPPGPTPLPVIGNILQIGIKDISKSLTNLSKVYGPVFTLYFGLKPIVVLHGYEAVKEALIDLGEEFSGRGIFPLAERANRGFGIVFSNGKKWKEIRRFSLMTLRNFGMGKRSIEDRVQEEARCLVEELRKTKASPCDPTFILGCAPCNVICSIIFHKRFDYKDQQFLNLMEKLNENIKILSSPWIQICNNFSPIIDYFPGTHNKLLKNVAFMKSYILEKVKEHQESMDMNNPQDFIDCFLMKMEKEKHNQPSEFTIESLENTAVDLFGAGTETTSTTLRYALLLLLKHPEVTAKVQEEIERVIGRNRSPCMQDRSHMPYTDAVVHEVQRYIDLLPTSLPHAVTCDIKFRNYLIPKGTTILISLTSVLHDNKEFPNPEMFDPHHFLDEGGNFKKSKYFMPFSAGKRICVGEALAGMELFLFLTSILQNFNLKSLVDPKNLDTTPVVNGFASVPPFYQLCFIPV

## COc1ccc2sc3c(O)nc4ccccc4c3c2c1
[1]
  EC50: 11.2 µM (not active)
[2]
  EC50: 11 µM (not active)
[3]
  EC50: 12.1 µM (not active)

## COc1cc(CNCCCN2CCOCC2)cc(Br)c1OCc1ccc(Cl)cc1
[4]
  EC50: 24 µM (active)
[5]
  EC50: 5.96 µM (active)
[6]
  EC50: 0.531 µM (active)

## Cc1ccc(C(=O)C2=C(O)C(=O)N(c3ncccn3)C2c2ccc(Cl)cc2)o1 (configuration not stated)
[7]
  EC50: 35.8 µM (not active)
[8]
  EC50: > 79.4 µM (inactive)
[9]
  EC50: > 79.4 µM (not active)

## COc1ccc(-c2cc(NC=O)c3ncc(-c4cccc(C(=O)NCCN(C)C)c4)n3c2)cn1
[10]
  AC50: 5.69 µM (active)
[11]
  AC50: 16.6 µM (active)

## C=CCOc1ccc(/C=C2\SC(=S)N(N3CCOCC3)C2=O)cc1
[12]
  IC50: 4.43 µM (active)
[13]
  IC50: > 50 µM (inactive)

## N#Cc1c(Cl)nc(SCc2ccccc2)nc1-c1ccccc1
[7]
  EC50: 5.16 µM (active)
[8]
  EC50: 4.02 µM (active)
[9]
  EC50: > 79.4 µM (not active)

## CCn1c(N2CCN(C(=O)Nc3ccc(F)cc3)CC2)nc2ccccc21
Cytochrome P450 2C9
  AC50: inconclusive
Cytochrome P450 1A2
  AC50: 20 µM (inconclusive)
[14]
  EC50: 0.944 µM (active)

## CCN1CCN(Cc2ccc(NC(=O)c3cc(NC(=O)c4cnnc5ccccc45)cc(OC)c3)cc2C(F)(F)F)CC1
[10]
  AC50: 24.3 µM (active)

## c1ccc(-n2ncc3c2ncn2nc(-c4ccco4)nc32)cc1
[1]
  EC50: > 79.4 µM (not active)
[2]
  EC50: > 79.4 µM (not active)
[3]
  EC50: 16.2 µM (not active)

## O=C(Nc1ccc(N2CCCCC2)cc1)c1ccccc1
HT-1080
  EC50: > 50 µM (not active)
[1]
  EC50: > 79.4 µM (not active)
[2]
  EC50: > 79.4 µM (not active)
[3]
  EC50: > 79.4 µM (not active)
[15]
  EC50: 1.28 µM (active)

## Cc1cc(Cl)c2oc(C(=O)N(C)Cc3nccn3C)c(C)c2c1
[5]
  EC50: 0.531 µM (active)

## NCCCC[C@H]1CN=C(S)N1CCc1cc(C(F)(F)F)cc(C(F)(F)F)c1
[10]
  AC50: 17.4 µM (active)

## CC1CCc2nc(NC(=O)CN3CCN(Cc4ccc5c(c4)OCO5)CC3)sc2C1 (configuration not stated)
[5]
  EC50: 0.299 µM (active)

## O=[N+]([O-])c1cc2c(cc1CNCCc1ccc3c(c1)OCO3)OCO2
[5]
  EC50: 1.06 µM (active)
[14]
  EC50: 3.35 µM (active)

## O=C(NCc1ccc2c(c1)OCO2)Nc1ccc2nsnc2c1
[1]
  EC50: 29.8 µM (not active)
[2]
  EC50: 20.4 µM (not active)
[3]
  EC50: 17.8 µM (not active)

## O=c1c2cn[nH]c2[nH]c(=S)n1-c1cccc2ccccc12
[7]
  EC50: > 79.4 µM (not active)
[8]
  EC50: > 79.4 µM (inactive)
[9]
  EC50: > 79.4 µM (not active)

## COc1cccc(CNC(=O)CSc2cc(=O)n(C)c3ccccc23)c1
[7]
  EC50: > 79.4 µM (not active)
[8]
  EC50: > 79.4 µM (inactive)
[9]
  EC50: > 79.4 µM (not active)

## COc1ccc(S(=O)(=O)N(C)C[C@@H]2Oc3ccc(NC(=O)C4CCCCC4)cc3CC(=O)N([C@@H](C)CO)C[C@@H]2C)cc1
[16]
  AC50: 27.6 µM (active)

## CN(C(=O)COC(=O)c1ccc(-c2ccc(O)cc2)cc1)C1CCS(=O)(=O)C1 (configuration not stated)
[17]
  IC50: 16.1 µM (active)
[18]
  IC50: > 66.6 µM (inactive)

## COCC(=O)N1C[C@@H](C)[C@H](OC)CN(C)C(=O)c2ccc(NC(=O)c3ccc(OC)cc3)cc2OC[C@@H]1C
[19]
  AC50: 5.52 µM (active)

## COc1ccc(Nc2nc(S(=O)(=O)c3ccc(C)cc3)c(Cl)s2)cc1
[1]
  EC50: > 79.4 µM (not active)
[2]
  EC50: > 79.4 µM (not active)
[3]
  EC50: > 79.4 µM (not active)

## Cc1ccccc1Cn1nnc(-c2cccc(C(=O)O)c2)n1
HT-1080
  EC50: > 50 µM (not active)
[15]
  EC50: > 100 µM (not active)

## CC1CC(C)CN(CCCNC(=O)Cn2cccc2C(=O)c2ccccc2)C1 (configuration not stated)
[14]
  EC50: 1.19 µM (active)
